According to ChEMBL document CHEMBL5303304, “EUbOPEN Chemogenomics Library - IncuCyte” (2023):
Numbered stars: 1 amine (or outer) side, 2 acyl side, 3 side chain; on linkers, the order of the positions; unused ones are H or OH. Bridge positions count the residues as written; N and C are the ends. Square brackets hold non-standard residues; d marks the D form. Peptide text beside a SMILES is read from it. I, II: the chains in the order shown. Hexamethylenediamine = C(CCCN[*:2])CCN[*:1]; Dip = N[C@H](C(=O)O)C(c1ccccc1)c1ccccc1; Chg = N[C@H](C(=O)O)C1CCCCC1; NMeA = CN[C@@H](C)C(=O)O

Assays:
Type in all cases: toxicity, cell-based
HEK-293T = assay: Incucyte cell viability with HEK293T; conditions: human, 10 µM, compound concentration 10 uM
Fibroblast = assay: Incucyte cell viability with human fibroblast; conditions: 10 µM, compound concentration 10 uM
U2OS = assay: Incucyte cell viability with U2OS; conditions: human, 10 µM, compound concentration 10 uM
Also: unitless GR value; below 1 slowed growth and below 0 cell loss.

SMILES | Growth Rate (HEK-293T; 6 h, replicate number 2) | Growth Rate (Fibroblast; 0 h, replicate number 2) | Growth Rate (Fibroblast; 18 h, replicate number 2) | Growth Rate (U2OS; 0 h, replicate number 1) | Growth Rate (U2OS; 6 h, replicate number 1) | Growth Rate (U2OS; 6 h, replicate number 2) | Growth Rate (U2OS; 12 h, replicate number 2) | Growth Rate (U2OS; 24 h, replicate number 1) | Growth Rate (HEK-293T; 18 h, replicate number 2) | Growth Rate (HEK-293T; 24 h, replicate number 2) | Growth Rate (Fibroblast; 6 h, replicate number 2) | Growth Rate (Fibroblast; 12 h, replicate number 2) | Growth Rate (Fibroblast; 18 h, replicate number 1) | Growth Rate (Fibroblast; 24 h, replicate number 1) | Growth Rate (Fibroblast; 24 h, replicate number 2) | Growth Rate (U2OS; 12 h, replicate number 1) | Growth Rate (U2OS; 18 h, replicate number 1) | Growth Rate (U2OS; 18 h, replicate number 2) | Growth Rate (U2OS; 24 h, replicate number 2) | Growth Rate (Fibroblast; 12 h, replicate number 1) | also measured
CC1CCN(C(=O)[C@@H](CCn2cccc2C#N)NS(=O)(=O)c2cccc3[nH]ccc23)CC1 | 0.99 | -0.84 | 0.96 | 0.26 | 0.55 | 0.85 | 0.81 | 0.86 | – | – | – | – | – | – | – | – | – | – | – | – | –
CN1CCN(c2ccc(C(=O)Nc3n[nH]c4ccc(Cc5cc(F)cc(F)c5)cc34)c(NC3CCOCC3)c2)CC1 [ENTRECTINIB] | -0.99 | – | -0.89 | – | -0.92 | -0.57 | -0.45 | -0.66 | -0.58 | -0.42 | -1 | -0.97 | -0.92 | -0.82 | -0.77 | -0.62 | -0.64 | -0.56 | -0.6 | – | Growth Rate (HEK-293T; 6 h, replicate number 1): -0.98; Growth Rate (HEK-293T; 12 h, replicate number 1): -0.89; Growth Rate (HEK-293T; 12 h, replicate number 2): -0.8; Growth Rate (HEK-293T; 18 h, replicate number 1): -0.67; Growth Rate (HEK-293T; 24 h, replicate number 1): -0.54; Growth Rate (Fibroblast; 0 h, replicate number 1): -0.42; Growth Rate (U2OS; 0 h, replicate number 2): -1
C=C[C@@]12CCc3cc(O)ccc3[C@H]1CC[C@@]1(C)[C@H]2CC[C@@H]1O | – | – | 0.95 | 0.1 | 0.77 | 0.96 | 0.95 | – | – | – | 0.88 | 0.29 | 0.92 | 0.83 | 0.71 | 0.99 | – | 0.93 | 0.91 | 0.86 | Growth Rate (HEK-293T; 0 h, replicate number 1): 0.4; Growth Rate (HEK-293T; 0 h, replicate number 2): -0.37; Growth Rate (Fibroblast; 0 h, replicate number 1): -1; Growth Rate (Fibroblast; 6 h, replicate number 1): 0.24
CC(C)[C@H](C(=O)Nc1ccc(C(=O)NO)cc1)c1ccccc1 [AR-42] | – | 0.62 | 0.42 | – | – | 0.73 | 0.96 | 0 | 0.59 | 0.37 | 0.66 | 0.61 | -0.41 | 0.78 | 0.61 | 0.83 | 0.46 | 0.44 | 0.11 | -1 | Growth Rate (HEK-293T; 0 h, replicate number 1): -0.15; Growth Rate (HEK-293T; 0 h, replicate number 2): 0.49; Growth Rate (HEK-293T; 24 h, replicate number 1): 0.89; Growth Rate (Fibroblast; 0 h, replicate number 1): 0.71
c1ccc(C2CCN(c3cnc4c(N5CCOCC5)nccn34)CC2)cc1 | 0.9 | – | 0.64 | – | 0.91 | – | – | – | 0.99 | – | 0.96 | 0.56 | – | 1 | – | 0.92 | 0.9 | – | – | – | Growth Rate (HEK-293T; 6 h, replicate number 1): 0.74; Growth Rate (HEK-293T; 12 h, replicate number 1): 0.94; Growth Rate (Fibroblast; 0 h, replicate number 1): -0.87
O=C(CNCc1cc2ccccc2[nH]1)N[C@H]1CC[C@@H](c2nc3ccccc3[nH]2)CC1 | 0.27 | 0.8 | – | -0.05 | 0.65 | 1 | – | 0.8 | 0.77 | 0.89 | 0.7 | 0.69 | 0.78 | 0.78 | – | 0.55 | 0.82 | – | – | 0.79 | Growth Rate (HEK-293T; 0 h, replicate number 1): -0.1; Growth Rate (HEK-293T; 0 h, replicate number 2): -0.87; Growth Rate (HEK-293T; 12 h, replicate number 2): 0.76; Growth Rate (Fibroblast; 6 h, replicate number 1): 0.9
CC(C)(O)c1cn(-c2ccc(-c3cccc(S(C)(=O)=O)c3)cc2)c(C(C)(C)c2ccccc2Cl)n1 [BMS-779788] | 0.58 | – | 0.78 | – | – | 0.61 | 0.79 | – | 0.87 | 0.92 | 0.64 | 0.55 | 0.36 | 0.75 | 0.63 | – | – | 0.76 | 0.7 | 0.66 | Growth Rate (HEK-293T; 0 h, replicate number 1): -0.7; Growth Rate (HEK-293T; 12 h, replicate number 1): 0.97; Growth Rate (HEK-293T; 12 h, replicate number 2): 0.93; Growth Rate (HEK-293T; 18 h, replicate number 1): 0.81; Growth Rate (HEK-293T; 24 h, replicate number 1): 0.9; Growth Rate (Fibroblast; 6 h, replicate number 1): -0.03; Growth Rate (U2OS; 0 h, replicate number 2): 0.31
CN(C)C/C=C/C(=O)Nc1ccc(C(=O)Nc2cccc(Nc3ncc(Cl)c(-c4c[nH]c5ccccc45)n3)c2)cc1 | – | – | – | -1 | – | – | 0.57 | 0.16 | – | – | – | – | – | – | 0.7 | – | 0.29 | 0.55 | 0.28 | – | Growth Rate (HEK-293T; 0 h, replicate number 2): -0.53
Cn1nccc1Nc1nccc(-c2cc3c(s2)C(C)(C)N(CCN2CCOCC2)C3=O)n1 [TEMUTERKIB] | 0.33 | -0.1 | – | -0.62 | 0.47 | 0.51 | – | – | – | 1 | – | – | 0.27 | 0.12 | – | 0.66 | – | 0.82 | 0.9 | -0.93 | Growth Rate (HEK-293T; 0 h, replicate number 1): 0.39; Growth Rate (HEK-293T; 12 h, replicate number 2): 0.76; Growth Rate (Fibroblast; 0 h, replicate number 1): -0.63; Growth Rate (U2OS; 0 h, replicate number 2): -0.42
CC(C)c1cc(Br)c(NC(=O)Nc2cccnc2)c(Br)c1 | 0.84 | – | 0.89 | -0.34 | – | – | – | – | – | – | -0.99 | 0.73 | -0.82 | – | – | – | – | – | 0.98 | – | Growth Rate (HEK-293T; 0 h, replicate number 2): 0.91
CN[C@@H](C)C(=O)N[C@H](C(=O)N1CCC[C@H]1C(=O)N[C@H](C(=O)NCCCCCCNC(=O)[C@@H](NC(=O)[C@@H]1CCCN1C(=O)[C@@H](NC(=O)[C@H](C)NC)C1CCCCC1)C(c1ccccc1)c1ccccc1)C(c1ccccc1)c1ccccc1)C1CCCCC1 (I: H-[NMeA][Chg]P[Dip] / II: H-[NMeA][Chg]P[Dip]; linker I:C-II:C via Hexamethylenediamine) | -0.41 | -0.82 | 0.49 | – | -0.4 | -0.46 | -0.63 | -0.22 | -0.31 | -0.25 | – | 0.74 | 0.47 | 0.5 | 0.33 | -0.41 | -0.25 | -0.21 | -0.21 | 0.82 | Growth Rate (HEK-293T; 6 h, replicate number 1): -0.33; Growth Rate (HEK-293T; 12 h, replicate number 1): -0.42; Growth Rate (HEK-293T; 12 h, replicate number 2): -0.4; Growth Rate (HEK-293T; 18 h, replicate number 1): -0.3; Growth Rate (HEK-293T; 24 h, replicate number 1): -0.23; Growth Rate (U2OS; 0 h, replicate number 2): -0.47
